In US20210381022A1, “INTEGRATED DRUG DISCOVERY PLATFORM FOR INBORN ERROR OF METABOLISM DISORDERS” (RAMOT AT TEL-AVIV UNIVERSITY LTD., priority 2018, published 2021):
Entries after “also recorded” stand apart in the source; their conditions may differ.

What was measured:
aro4Δ mutant = assay: Yeast growth assay of aro4Δ mutant with phenylalanine; format: cell-based, Saccharomyces cerevisiae; details: SD medium with phenylalanine
From the text: The focus was put on a strain with a deletion of the ARO4 gene. The inventors aimed to determine whether the toxic effect is influenced by phenylalanine feeding. Thus, the cellular growth of wild-type and the aro4Δ mutant was examined by serial dilutions on selective plates that were supplemented with phenylalanine. In addition, cellular growth was also examined by measuring the turbidity of the medium upon addition of phenylalanine (FIG. 26A, 26B).

[1] = system: RB857 (PAH-1 mutant) and N2 (WT) worms; assay: C. elegans model for PKU; format: in vivo, Caenorhabditis elegans
Procedure: (§1) Wild-type N2, RB857 and NL2099 worms were obtained from the Caenorhabditis Genetics Center. RNAi clones was obtained from the Ahringer RNAi library as previously described [Fisher A L, et al., J. Biol. Chem. 283: 9127-9135(2008)]. Worms were grown on NGM media without peptone and the metabolites were added into a boiling media. Baicalein and EGCG were added to a media after cooled down to 45 degrees.
To study PKU in C. elegans model, a strain was used with mutation in the PAH-1 gene (RB857)]. […] Next, the effect of one of the previously identified hits i.e. baicalein was examined on the development of worms. The life cycle of C. elegans is comprised of the embryonic stage, four larval stages (L1-L4) and adulthood. The end of each larval stage is marked with a molt, during which a new, stage-specific cuticle is synthesized and the old one is shed.

lat1Δ = assay: Yeast growth assay of lat1Δ with isoleucine; format: cell-based, Saccharomyces cerevisiae; details: minimal media with isoleucine, 40 h
Procedure: Growth curves of WT and lat1Δ on minimal media with or without […] isoleucine. Cells were incubated at 30° C. for 40 h, with continuous shaking.
To establish an in vivo model in yeast for the study of BCAA accumulation and toxicity, the LAT1 gene was disrupted. LAT1 encodes the dihydrolipoamide acetyltransferase component (E2) of the yeast pyruvate dehydrogenase complex. LAT1 catalyzes the oxidative decarboxylation of pyruvate to acetyl-CoA and mutations in DBT1, the human homolog, can lead to Maple Syrup Urine Disease (MSUD).

aro3Δ mutant = assay: Yeast growth assay of aro3Δ mutant with tyrosine feeding; format: cell-based, Saccharomyces cerevisiae
Procedure: (§2) Strains were grown over night at 30° C. in SD medium without adenine. For spotting assays, strains were diluted to 6.25*10^7 cells/mL and were then 5-fold serially diluted and spotted on SD media with the indicated concentrations of adenine or TA (Sigma-Aldrich). Plates were incubated at 30° C. for 2 days. […] For OD600 measurements, strains were diluted to OD600 0.01, 200 μL of cells were platted on 96 wells plates and incubated at 30° C. for 25 hours with continuous shaking. OD600 was measured using Tecan™ SPARK 10M plate reader.
The focus was put on a strain with a deletion of the ARO3 gene in which a significant decrease in cellular growth was observed upon tyrosine feeding (see FIG. 21). The inventors aimed to determine whether the toxic effect was influenced by different levels of tyrosine. Thus, the cellular growth of wild-type and the aro3Δ mutant was examined by serial dilutions on selective plates that were supplemented with different concentrations of tyrosine (FIG. 21A). In addition, cellular growth was also examined by measuring the turbidity of the medium upon addition of the indicated concentration of tyrosine (FIG. 21B). […] Thus, cell growth is affected by tyrosine levels in a dose-dependent manner which further supports the notion that the toxicity in the aro3Δ mutant results from the presence of tyrosine.
In order to examine the effect of EGCG on cell growth, the aro3Δ mutant was spotted on 4a.a SD plates that contained tyrosine alone or tyrosine with different concentrations of EGCG. […] Thus, the lag phase in the presence of EGCG was nearly the same as cells unexposed to tyrosine, indicating the potent ability of EGCG to eliminate the tyrosine sensitivity of the aro3Δ mutant. […] Next, the inventors aimed to gain additional insights into the effect of EGCG on the amyloid-like fibrils formed by the accumulation of tyrosine in the aro3Δ mutant cells. For that purpose, cells were stained with the amyloid-specific dye ProteoStat®, and FACS was applied to detect tyrosine aggregates. […] (FIG. 25).

[2] = system: tyrosine aggregates in aro3Δ mutant cells; assay: Flow cytometry with ProteoStat staining of aro3Δ mutant; format: cell-based, Saccharomyces cerevisiae; details: tyrosine 0.02 mM, EGCG 5 mM
Procedure: An amount of 1 mL of logarithmic cells were washed with PBS buffer and sonicated using 15 s pulses at 20% power. For each sample, 2*10^6 cells were resuspended with ProteoStat dye (Enzo Life Sciences) diluted 1:3000 in ProteoStat assay buffer. Cells were incubated for 15 min at room temperature protected from light. Flow cytometry was preformed using Stratedigm S1000EXi and the CellCapTure software (Stratedigm, San Jose, Calif.). Live cells were gated (P1) by forward scatter and side scatter. Fluorescence channels for FITC (530/30) and PE-Cy5 (676/29) were used utilizing a 488 nm laser source. A total of 50,000 events were acquired for each sample. Analyses were performed using FlowJo software (TreeStar, version 10).
In order to examine whether the inhibition in cell growth in a non-linear cooperative manner upon tyrosine feeding (FIG. 23A, 23B) is associated with in vivo formation of amyloid-like assemblies, cells were stained with ProteoStat®, a well-established amyloid-specific fluorescent dye that was previously shown to detect the presence of intracellular protein amyloid-like aggregates in living bacterial cells with high specificity, even when the target proteins are expressed at low levels.
In order to examine the effect of EGCG on cell growth, the aro3Δ mutant was spotted on 4a.a SD plates that contained tyrosine alone or tyrosine with different concentrations of EGCG. […]

wild-type strain = assay: Yeast growth assay of wild-type strain; format: cell-based, Saccharomyces cerevisiae; details: tyrosine in media, EGCG added
Procedure: as §2

fah-1 RNAi treated worms = assay: C. elegans model for Tyrosinemia (fah-1 RNAi); format: in vivo, Caenorhabditis elegans; details: fah-1 RNAi, tyrosine added, EGCG added
Procedure: as §1
Mutations in different enzymes that are involved in the tyrosine degradation pathway are responsible for different types of Tyrosinemia. The tyrosine degradation pathway in mammals and C. elegans in conserved and the most severe is type I Tyrosinemia, which is caused by mutations affecting the last enzyme in the pathway, fumarylacetoacetate hydrolase (FAH). To study Tyrosinemia in C. elegans model, an RNAi was used that specifically silences the fumarylacetoacetate hydrolase (fah-1), as was previously reported (K10C4.2). RNAi directed against fah-1 causes severe phenotype of reduced size, impaired fertility and reduction of total number of viable worms (FIG. 32).

phenylalanine assemblies = details: reference [4]; cited from earlier work
gcv1Δ cells = details: SD media with glycine

N[C@@H](Cc1ccccc1)C(=O)O [phenylalanine]
growth of aro4Δ mutant with phenylalanine in the medium (aro4Δ mutant): growth inhibition | RB857 worms that didn't reach adulthood by day 10 ([1]; 100 mM Phenylalanine): more than 90% | worms reaching adulthood on day 4 ([1]; RB857, 100 mM phenylalanine in minimal media): none of the worms reached adulthood on day 4 | number of worms ([1]; RB857, phenylalanine added): significantly reduced the number of worms

CC[C@H](C)[C@H](N)C(=O)O [isoleucine]
growth with isoleucine in the growth medium (lat1Δ): sensitivity

O=C(O[C@@H]1Cc2c(O)cc(O)cc2O[C@@H]1c1cc(O)c(O)c(O)c1)c1cc(O)c(O)c(O)c1 [EGCG, epigallocatechin gallate]
growth of aro3Δ mutant (aro3Δ mutant; 4a.a SD with 0.03 mM tyrosine, different concentrations of EGCG): significant improvement in growth in a dose-dependent manner | lag phase of cell growth kinetics (aro3Δ mutant; tyrosine in media, EGCG treated vs untreated cells): notably shorter | tyrosine aggregates percentage (ProteoStat, FACS) [2]: dramatic reduction in the tyrosine aggregates percentage | growth of wild-type cells (wild-type strain): no significant changes | fertility of worms (fah-1 RNAi treated worms): enhance the fertility of worms; also recorded: partially restore | total number of viable worms (fah-1 RNAi treated worms): elevation of the total number of worms; also recorded: partially restore | phenylalanine aggregation and cytotoxicity of the assemblies in vitro (phenylalanine assemblies): counteract

NCC(=O)O [glycine]
growth with glycine in the growth medium (gcv1Δ cells): dose-dependent growth inhibition
